Data from patent US11173149B2, “Inhibition of protein disulfide-isomerase A3” (Romark Laboratories L.C., priority 2017, dated 2021).

Key:
recombinant human PDIA3 = target: T1, recombinant human PDIA3 (Homo sapiens, UniProt P30101); test: Disulfide reductase activity assay with Di-E-GSSG substrate; assay type: biochemical
T1 construct: full-length recombinant human PDIA3 (rhPDIA3, Abcam); purchased Abcam
T1 sequence (P30101 25-505): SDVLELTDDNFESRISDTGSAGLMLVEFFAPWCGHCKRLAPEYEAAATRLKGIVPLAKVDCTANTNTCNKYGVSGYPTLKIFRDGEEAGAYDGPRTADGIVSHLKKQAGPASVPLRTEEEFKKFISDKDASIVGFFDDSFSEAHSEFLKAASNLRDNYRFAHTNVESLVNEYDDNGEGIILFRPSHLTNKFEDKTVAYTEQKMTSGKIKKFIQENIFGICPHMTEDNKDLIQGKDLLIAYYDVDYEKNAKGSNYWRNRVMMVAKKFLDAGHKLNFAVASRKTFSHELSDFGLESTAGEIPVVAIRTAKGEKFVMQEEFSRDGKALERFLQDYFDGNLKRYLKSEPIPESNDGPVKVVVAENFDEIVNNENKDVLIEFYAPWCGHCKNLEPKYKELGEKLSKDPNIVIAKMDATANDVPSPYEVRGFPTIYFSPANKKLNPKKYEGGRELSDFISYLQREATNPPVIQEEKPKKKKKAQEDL
Experimental: PDIA3 activity was determined by enzyme-dependent disulfide reduction assay. The disulfide reductase activity was tested in vitro using dieosin glutathione disulfide (Di-E-GSSG) as substrate. Recombinant human PDIA3 (rhPDIA3) (2 nM), pre-incubated with different concentrations of TIZ or control diluent (DMSO) for 10 min. at room temperature, was added to Di-E-GSSG (150 nM) in the presence of 5 μM DTT (arrow). PDIA3 reductase activity cleaves the S—S bond of Di-E-GSSG resulting in the release of fluorescent 2-eosin-GSH (EGSH). The increase in fluorescence was monitored at λ=545 nm with excitation at λ=525 nm, and expressed as relative fluorescence units (RFU).
FIG. 4A-B show effect of TIZ on PDIA3 and PDIA1 disulfide reductase activity. Effect of TIZ (5 μg/ml) on PDIA3 and PDIA1 (PDI) activities were measured by Di-E-GSSG assay using the same concentration (20 nM) of PDIA3 or PDIA1.
Disulfide reductase (DR) activity of PDIA3 or protein disulfide isomerase (PDI) was monitored by sensitive fluorescent assay using dieosin glutathione disulfide (Di-E-GSSG) (Cayman Chemical) as a substrate. DR activity assay was performed in a reaction buffer (0.1 M potassium phosphate, pH 7.0; 2 mM EDTA) by adding 2 or 20 nM of full-length recombinant human PDIA3 (rhPDIA3, Abcam) or PDI (rhPDIA1, R&D Systems) to different concentrations of Di-E-GSSG in the presence of 5 μM DTT. The reductase activity of disulfide isomerases cleaves the S—S bond of Di-E-GSSG resulting in the release of fluorescent 2-eosin-GSH (EGSH). To test the effect of TIZ on PDIA3 and PDI reductase activity, recombinant human PDIA3 or PDIA1 were previously incubated for 10 min at room temperature with different concentrations of TIZ or control diluent (DMSO) in the reaction buffer, unless differently specified. The increase in fluorescence was monitored at λ=545 nm with excitation at λ=525 nm at 25° C. with continuous stirring, and expressed as relative fluorescence units (RFU).
Thiazolides inhibit PDIA3 disulfide isomerase activity. To investigate whether thiazolides may directly affect PDIA3 disulfide-isomerase activity, we performed a fluorescence-based reductase in vitro assay using purified full-length recombinant human PDIA3 and oxidized glutathione coupled to dieosin (Di-E-GSSG) as a substrate. NTZ's circulating active metabolite, TIZ, was utilized for these studies.
Recombinant human PDIA3 (rhPDIA3) (2 nM) was pre-incubated with different concentrations of TIZ or control diluent (DMSO) for 10 min. at room temperature. […] PDIA3 reductase activity cleaves the S—S bond of Di-E-GSSG resulting in the release of fluorescent 2-eosin-GSH (EGSH), that is measured in function of time by fluorimetry, as described in Materials and Methods. […]

[1] = system: PR8 IAV HA transport to the plasma membrane; assay type: cell-based; conditions: NTZ 5 μg/ml after adsorption, A549 cells, PR8 5 PFU/cell, 6 h p.i.
[2] = system: PDIA3-HA protein-protein interaction; assay type: cell-based, canine

SMILES	effect on PDIA3 versus human PDIA1 reductase activity (recombinant human PDIA3; TIZ 5 μg/ml, PDIA3 or PDIA1 20 nM, preliminary experiment)	lowest TIZ concentration tested at which inhibitory activity was observed (recombinant human PDIA3; rhPDIA3 2 nM, Di-E-GSSG 150 nM, 5 μM DTT) [µg/mL]	PDIA3 disulfide reductase activity (time-course of EGSH fluorescence) (recombinant human PDIA3; rhPDIA3 2 nM, pre-incubated 10 min with different TIZ concentrations, Di-E-GSSG 150 nM, 5 μM DTT)	plasma membrane-incorporated HA (HA transport to the plasma membrane) [1]	HA-PDIA3 interaction detected by PLA [2]	PDIA3 disulfide-isomerase activity in an in vitro assay (conclusion statement) (recombinant human PDIA3)
O=C(Nc1ncc([N+](=O)[O-])s1)c1ccccc1O [TIZ, tizoxanide]	preferentially inhibits PDIA3 reductase activity	1	inhibits PDIA3 activity in a dose-dependent manner			
CC(=O)Oc1ccccc1C(=O)Nc1ncc([N+](=O)[O-])s1 [NTZ, nitazoxanide]				inhibits PR8 IAV HA transport to the plasma membrane	PDIA3 strongly interacts with HA forming large spots	directly inhibits PDIA3 disulfide-isomerase activity
